Several values for one entry are separate records, joined by “and”; a condition that tells them apart may be missing. Equal values may be shown once. Toxic doses and inconclusive results are not listed.
System: P388 leukemia ip, CD2F1 mice, survival T/C
Assay: NCI In Vivo Anticancer Drug Screen. Data for tumor model P388 Leukemia (intraperitoneal) in CD2F1 (CDF1) mice
Conditions: endpoint: median survival time, higher = longer survival
In short: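 Mice carrying the transplanted tumor received test compound or vehicle. Survival was recorded in each group, and the value is the treated-group measurement divided by that of the vehicle-treated control group.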

[1] = dose: 50.0 mg/kg/injection, schedule: Q01DX009 (ip), vehicle: saline
[2] = dose: 50.0 mg/kg/injection, schedule: Q01DX009 (ip), vehicle: saline with Tween-80
[3] = dose: 60.0 mg/kg/injection, schedule: Q01DX005 (ip), vehicle: saline with Tween-80
[4] = dose: 120.0 mg/kg/injection, schedule: Q01DX005 (ip), vehicle: saline with Tween-80
[5] = dose: 25.0 mg/kg/injection, schedule: Q01DX005 (ip), vehicle: Klucel (hydroxypropylcellulose) (HPC)
[6] = dose: 50.0 mg/kg/injection, schedule: Q01DX005 (ip), vehicle: Klucel (hydroxypropylcellulose) (HPC)
[7] = dose: 100.0 mg/kg/injection, schedule: Q01DX005 (ip), vehicle: Klucel (hydroxypropylcellulose) (HPC)
[8] = dose: 200.0 mg/kg/injection, schedule: Q01DX005 (ip), vehicle: Klucel (hydroxypropylcellulose) (HPC)

With COC(=O)C1CC23C4=C(CCC41)CCC1CN4CC(C)C(CC(OC(C)=O)C12COC(C)=O)C43O (stereo not drawn) the T/C (dose: 0.78 mg/kg/injection, schedule: Q01DX009 (ip), vehicle: suspension in saline) was 108 % of control, the T/C (dose: 1.56 mg/kg/injection, schedule: Q01DX009 (ip), vehicle: suspension in saline) was 104 % of control and the T/C (dose: 3.13 mg/kg/injection, schedule: Q01DX009 (ip), vehicle: suspension in saline) was 100 % of control. The T/C (dose: 6.25 mg/kg/injection, schedule: Q01DX009 (ip), vehicle: suspension in saline) was 104 % of control.

With O=C(Cc1cc2c(cc1Br)OCO2)NCCc1ccc2c(c1)OCO2 the T/C (dose: 12.5 mg/kg/injection, schedule: Q01DX001 (ip), vehicle: saline + alcohol) was 99 % of control, the T/C (dose: 25.0 mg/kg/injection, schedule: Q01DX001 (ip), vehicle: saline + alcohol) was 98 % of control and the T/C (dose: 50.0 mg/kg/injection, schedule: Q01DX001 (ip), vehicle: saline + alcohol) was 105 % of control.

For CN1C(=C2C=CC(=NS(=O)(=O)c3ccc(Cl)cc3)C=C2)Sc2ccccc21, the T/C (dose: 100.0 mg/kg/injection, schedule: Q04DX003 (ip), vehicle: saline) was 105 % of control, the T/C (dose: 200.0 mg/kg/injection, schedule: Q04DX003 (ip), vehicle: saline) was 106 % of control and the T/C (dose: 400.0 mg/kg/injection, schedule: Q04DX003 (ip), vehicle: saline) was 100 % of control.

With O=NN(CCCl)C(=O)Nc1ccc(Br)cc1 the T/C (dose: 6.25 mg/kg/injection, schedule: Q01DX009 (ip), vehicle: saline) was 122 % of control, the T/C (dose: 12.5 mg/kg/injection, schedule: Q01DX009 (ip), vehicle: suspension in saline) was 150 % of control and the T/C (dose: 25.0 mg/kg/injection, schedule: Q01DX009 (ip), vehicle: suspension in saline) was 167 % of control. For the same molecule, the T/C [1] was 122 % of control and the T/C (dose: 50.0 mg/kg/injection, schedule: Q01DX009 (ip), vehicle: suspension in saline) was 167 % of control.

With Cc1ccc2c(c1)sc1nc(C)cc(=O)n12 the T/C (dose: 10.0 mg/kg/injection, schedule: Q04DX002 (ip), vehicle: Klucel (hydroxypropylcellulose) (HPC)) was 106 % of control, the T/C (dose: 20.0 mg/kg/injection, schedule: Q04DX002 (ip), vehicle: Klucel (hydroxypropylcellulose) (HPC)) was 97 % of control and the T/C (dose: 40.0 mg/kg/injection, schedule: Q04DX002 (ip), vehicle: Klucel (hydroxypropylcellulose) (HPC)) was 95 % of control.

In the case of CCOC(=O)CCCn1nc(-c2ccc(Cl)cc2)c(-c2ccc(Cl)cc2)c(C#N)c1=O, the T/C (dose: 100.0 mg/kg/injection, schedule: Q04DX002 (ip), vehicle: saline with Tween-80) is reported as 123 % of control.

With N#CSC1=C(SC#N)C1(F)F the T/C (dose: 12.5 mg/kg/injection, schedule: Q04DX002 (ip), vehicle: Klucel (hydroxypropylcellulose) (HPC)) was 100 % of control, the T/C (dose: 25.0 mg/kg/injection, schedule: Q04DX002 (ip), vehicle: Klucel (hydroxypropylcellulose) (HPC)) was 100 % of control and the T/C (dose: 50.0 mg/kg/injection, schedule: Q04DX002 (ip), vehicle: Klucel (hydroxypropylcellulose) (HPC)) was 104 % of control.

With CCC(CC)(COS(C)(=O)=O)COS(C)(=O)=O the T/C [2] was 104 % of control, the T/C (dose: 100.0 mg/kg/injection, schedule: Q01DX009 (ip), vehicle: saline with Tween-80) was 101 % of control and the T/C (dose: 200.0 mg/kg/injection, schedule: Q01DX009 (ip), vehicle: saline with Tween-80) was 90 % of control. For the same molecule, the T/C (dose: 400.0 mg/kg/injection, schedule: Q01DX009 (ip), vehicle: saline with Tween-80) was 89 % of control.

With COC(=O)/C(=C/c1ccccc1)N(C(C)=O)C(C)=O the T/C [3] was 100 % of control, the T/C [4] was 105 % of control and the T/C (dose: 240.0 mg/kg/injection, schedule: Q01DX005 (ip), vehicle: saline with Tween-80) was 107 % of control.

COc1cc2c(cc1OC)C13CCN4CC5=CCOC6CC(=O)N2C1C6C5C3C4 (stereo not drawn) (tested in a mixture with another compound) was tested, and the T/C (dose: 12.5 mg/kg/injection, schedule: Q01DX005 (ip), vehicle: saline) was 90 % of control, the T/C (dose: 25.0 mg/kg/injection, schedule: Q01DX005 (ip), vehicle: saline) was 95 % of control and the T/C (dose: 50.0 mg/kg/injection, schedule: Q01DX005 (ip), vehicle: saline) was 98 % of control.

In the case of Cc1nc2scc(-c3ccccc3)n2c(=O)c1CN1CCCCC1, the T/C (dose: 37.5 mg/kg/injection, schedule: Q04DX002 (ip), vehicle: Klucel (hydroxypropylcellulose) (HPC)) is reported as 103 % of control, the T/C (dose: 75.0 mg/kg/injection, schedule: Q04DX002 (ip), vehicle: Klucel (hydroxypropylcellulose) (HPC)) is reported as 106 % of control and the T/C (dose: 150.0 mg/kg/injection, schedule: Q04DX002 (ip), vehicle: Klucel (hydroxypropylcellulose) (HPC)) is reported as 95 % of control.

In the case of C=C1C(=O)OC2C1C(OC(=O)/C(C)=C/C)CC1(C)C(=O)CCC(=C)C21 (stereo not drawn), the T/C (dose: 12.5 mg/kg/injection, schedule: Q01DX005 (ip), vehicle: Klucel (hydroxypropylcellulose) (HPC)) is reported as 110 % of control, the T/C [5] is reported as 104 % of control and 106 % of control and 107 % of control and the T/C [6] is reported as 106 % of control and 109 % of control and 112 % of control. The T/C [7] was 109 % of control, the T/C (dose: 150.0 mg/kg/injection, schedule: Q01DX005 (ip), vehicle: Klucel (hydroxypropylcellulose) (HPC)) was 107 % of control and the T/C [8] was 108 % of control and 111 % of control.

N#CN.[Pb] was tested, and the T/C [5] was 115 % of control and 94 % of control, the T/C [6] was 101 % of control (2×) and 104 % of control and the T/C [7] was 107 % of control and 109 % of control and 110 % of control. For the same molecule, the T/C [8] was 111 % of control.

For O=C(O)CC(CC(=O)N(CCP(c1ccccc1)c1ccccc1)CCP(c1ccccc1)c1ccccc1)C(=O)O (stereo not drawn) (tested in a mixture with another compound), the T/C [1] was 111 % of control, the T/C (dose: 100.0 mg/kg/injection, schedule: Q01DX009 (ip), vehicle: saline) was 111 % of control and the T/C (dose: 100.0 mg/kg/injection, schedule: Q04DX003 (ip), vehicle: Klucel (hydroxypropylcellulose) (HPC)) was 99 % of control. The T/C (dose: 200.0 mg/kg/injection, schedule: Q01DX009 (ip), vehicle: saline) was 112 % of control, the T/C (dose: 200.0 mg/kg/injection, schedule: Q04DX003 (ip), vehicle: Klucel (hydroxypropylcellulose) (HPC)) was 101 % of control and the T/C (dose: 400.0 mg/kg/injection, schedule: Q04DX003 (ip), vehicle: Klucel (hydroxypropylcellulose) (HPC)) was 97 % of control.

In the case of CNC(=O)OCc1c(COC(=O)NC)c(-c2ccc(S(=O)(=O)c3ccccc3)cc2)n(C)c1C, the T/C (dose: 12.5 mg/kg/injection, schedule: Q01DX009 (ip), vehicle: distilled water + Tween-80) is reported as 154 % of control, the T/C (dose: 40.0 mg/kg/injection, schedule: Q01DX009 (ip), vehicle: distilled water + Tween-80) is reported as 153 % of control and the T/C (dose: 50.0 mg/kg/injection, schedule: Q01DX009 (ip), vehicle: distilled water + Tween-80) is reported as 100 % of control. For the same molecule, the T/C (dose: 80.0 mg/kg/injection, schedule: Q01DX009 (ip), vehicle: distilled water + Tween-80) was 153 % of control.

For CC(C)(C)c1cc2c(O)c(c1)Cc1cc(C(C)(C)C)cc(c1O)Cc1cc(C(C)(C)C)cc(c1O)Cc1cc(C(C)(C)C)cc(c1O)C2, the T/C [6] was 100 % of control, the T/C [7] was 102 % of control and the T/C [8] was 96 % of control.

In the case of CN(C)Cc1[nH]c2ccccc2c1Sc1ccccc1, the T/C [3] is reported as 100 % of control and the T/C [4] is reported as 119 % of control.

For CCC(C)N(CCCOC(=O)c1ccc(N)cc1)C(C)CC (stereo not drawn), the T/C (dose: 12.5 mg/kg/injection, schedule: Q01DX009 (ip), vehicle: saline with Tween-80) was 109 % of control, the T/C (dose: 12.5 mg/kg/injection, schedule: Q04DX003 (ip), vehicle: saline) was 100 % of control and the T/C (dose: 25.0 mg/kg/injection, schedule: Q01DX009 (ip), vehicle: saline with Tween-80) was 100 % of control. The T/C (dose: 25.0 mg/kg/injection, schedule: Q04DX003 (ip), vehicle: saline) was 91 % of control, the T/C [2] was 104 % of control and the T/C (dose: 50.0 mg/kg/injection, schedule: Q04DX003 (ip), vehicle: saline) was 91 % of control.

In the case of CC12CC(CC1=O)CC2S(=O)(=O)O (stereo not drawn), the T/C (dose: 100.0 mg/kg/injection, schedule: Q01DX001 (ip), vehicle: saline with Tween-80) is reported as 96 % of control and the T/C (dose: 200.0 mg/kg/injection, schedule: Q01DX001 (ip), vehicle: saline with Tween-80) is reported as 102 % of control.

— PubChem BioAssay AID330 (DTP/NCI, 2004)
